Columns and labels:
[1] = tested on: Cultured hippocampal neurons; test: Quantification of neuronal damage (PI uptake, annexin-V staining) after Aβ-treated MVs; assay type: cell-based; conditions: 20 μM CNQX and 100 μM APV applied together during 1 h exposure to Aβ-treated MVs, read 24 h later
Experimental: (§1) FIG. 12. Cultured hippocampal neurons were loaded with the ratiometric calcium dye FURA-2 for 1 h. During FURA-2 loading, neurons were exposed to microglia-derived microvesicles pre-incubated overnight in neuronal medium in the presence or in the absence of Abeta 1-42 (5 μM). Neurons were then wash in Kreb's ringer and resting calcium levels and calcium responsiveness to glutamate agonists (AMPA 100 μM, NMDA 100 μM) were evaluated using a single cell calcium imaging system. […] PI uptake and fragmentation of neuronal cytoskeleton (C) and staining for annexin-V, quantified in F, indicate that Aβ-treated MVs strongly affect neuronal viability. […] I Quantitative analysis of mean amplitude of calcium responses evoked by AMPA or NMDA in control neurons and neurons exposed to Aβ-treated AD MVs.
Living neurons were exposed annexin-V-FITC, fixed with 4% paraphormaldeyde and counterstained with antibodies direct against the neuronal marker SNAP-25. Apoptotic processes, labelled by annexin-V, were quantified by the Image J software and normalized to SNAP-25 immunoreactivity, as an index of neurite density. […] PI positive nuclei were quantified and normalized to total Hoescht positive nuclei. α-tubulin staining was carried out to evaluate integrity of neuronal cytoskeleton. At least 10 different fields from three independent experiments have been analyzed.

[2] = tested on: Cultured hippocampal neurons; test: Calcium imaging (FURA-2) of basal cytosolic calcium in neurons exposed to Aβ-treated MVs; assay type: cell-based; conditions: APV and CNQX applied together; FIG. 12G
Experimental: as §1
Polychrome V (TILL Photonics, Grafelfing, Germany) was used as a light source. Fura-2 fluorescence images were collected with a PCO Super VGA SensiCam (Axon Instruments, Forest City, Calif., USA) and analyzed with TILL vision software. […] The ratio values in discrete areas of interest were calculated from sequences of images to obtain temporal analyses. Calcium concentrations were expressed as F340/380 fluorescence ratios.

[3] = molecular target: T1, acid sphingomyelinase (A-SMase) (Homo sapiens, UniProt P17405); conditions: recently identified; mechanism similar to tricyclic antidepressants; cited from earlier work
T1 sequence (P17405 47-631): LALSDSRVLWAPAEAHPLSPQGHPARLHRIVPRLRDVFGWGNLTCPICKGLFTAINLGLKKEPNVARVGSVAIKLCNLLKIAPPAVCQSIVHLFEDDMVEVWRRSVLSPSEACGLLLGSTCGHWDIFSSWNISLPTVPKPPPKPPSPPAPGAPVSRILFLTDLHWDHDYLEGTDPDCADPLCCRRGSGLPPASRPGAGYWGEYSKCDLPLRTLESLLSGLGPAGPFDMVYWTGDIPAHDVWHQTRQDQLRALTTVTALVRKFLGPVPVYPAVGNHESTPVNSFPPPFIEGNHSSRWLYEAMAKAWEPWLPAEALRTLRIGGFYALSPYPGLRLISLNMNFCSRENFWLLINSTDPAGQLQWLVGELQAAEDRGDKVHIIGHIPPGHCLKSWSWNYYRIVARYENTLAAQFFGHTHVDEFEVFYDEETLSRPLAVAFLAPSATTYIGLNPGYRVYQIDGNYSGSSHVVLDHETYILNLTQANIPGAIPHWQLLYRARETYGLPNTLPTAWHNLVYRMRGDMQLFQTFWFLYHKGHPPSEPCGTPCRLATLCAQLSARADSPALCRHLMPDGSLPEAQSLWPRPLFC

Primary mouse microglia = test: Release of AnnexinV+ shed vesicles from ATP-stimulated microglia, measured by FACS; assay type: cell-based; conditions: FIG. 13
Experimental: FIG. 13. FTY720 treatment. Primary mouse microglia was pre-treated, or not, with FTY720, also named fingolimod or Gylenia, currently in course of registration for the treatment of multiple sclerosis, for 30 min., then ATP was added for further 30 min. to induce the release of AnnexinV^+ shed vesicles, as measured by FACS.
Dendrites of neurons exposed to Aβ1-42-treated-MVs have a frequently fragmented or beaded appearance (FIG. 12D), display abnormal cytoplasmic calcium concentration (FIG. 12A) and reduced responsiveness to glutamate agonists (FIG. 12B). […] Similar detrimental effects are induced in cultured neurons by MVs isolated from AD CSF, pre-incubated with Aβ1-42 (FIG. 12H-I). Finally, primary mouse microglia was pre-treated, or not, with FTY720, also named fingolimod or Gylenia (FIG. 13), currently in course of registration for the treatment of multiple sclerosis, for […], then ATP was added for 30 min. to induce the release of AnnexinV^+ shed vesicles, as measured by FACS. […] Therefore, the number of shed vesicles in the CSF of treated patients represents a biomarker of therapeutic efficacy of MS or other neurological disorders therapeutic treatment.

isolectin IB-4 [4] = test: Specificity of IB4-FITC labelling of primary microglia (fluorescence microscopy); assay type: binding, Baindeiraea Simplicifolia; conditions: IB4-FITC pretreated with 1M melibiose, FIG. 5A
Excerpt: (§2) FIG. 5. IB-4 labeling of microglia/macrophage-derived MVs is specific. A. Differential interference contrast microscopy (right panels) and fluorescent images (left panels) of primary microglia labelled in vivo with IB4-FITC.
(§3) CSF collected from naïve mice or mice exposed to different inflammatory treatments was directly stained with FITC-conjugate Isolectin B4 from Baindeiraea Simplicifolia, (IB4-FITC, SIGMA), and the phosphatydil serine ligand annexin-V in 1% BSA. Specificity of IB4 labelling was evaluated by treating IB4-FITC with 1 M melibiose (6-O-a-D-galactopyranosyl-D-glucose, Sigma M5500) for 30 min before addition to Shed MVs (FIG. 9) as previously described (Ayoub A E et al.). CSF was then diluted in PBS buffer and labelled MVs were acquired within a fixed time interval on a Canto II HTS flow cytometer (Becton Dickinson). Data were analysed using FCS 3 software (Becton Dickinson, Franklin Lakes, N.J., USA). A gate was established on size using beads of 0.5-2 μm. Whithin this gate IB4/annexin-V double positive events (number of events/μl) were evaluated as a parameter of MVs concentration in the CSF. […] IB4 and annexin-V double positive events were evaluated as a parameter of shed MVs concentration while IB4 and CD63 double positive events was evaluated as a parameter of exosome concentration. […]

isolectin IB-4 [5] = test: Specificity of IB4-FITC labelling of MVs shed from N9 microglia (flow cytometry); assay type: binding, Baindeiraea Simplicifolia; conditions: melibiose pretreatment, FACS, FIG. 5B
Excerpt: as §2, §3

For `N[C@@H](CCCP(=O)(O)O)C(=O)O` [APV], the “neuronal damage caused by Aβ-treated MVs (PI uptake, annexin-V staining)” value [1] was “strongly prevented” and the “increase in cytoplasmic calcium level induced by Aβ-treated MVs” value [2] was “almost completely inhibited”.
With `N#Cc1cc2[nH]c(=O)c(=O)[nH]c2cc1[N+](=O)[O-]` [CNQX] the “neuronal damage caused by Aβ-treated MVs (PI uptake, annexin-V staining)” value [1] was “strongly prevented” and the “increase in cytoplasmic calcium level induced by Aβ-treated MVs” value [2] was “almost completely inhibited”.
For `CCCCCCCCc1ccc(CCC(N)(CO)CO)cc1` [FTY720], the “inhibition of A-SMase” value [3] is given as “inhibitor of A-SMase”, the MP shedding (Primary mouse microglia) is given as “potently inhibits MP shedding” and the “release of AnnexinV+ shed vesicles” value (Primary mouse microglia; FTY720 pre-treatment 30 min, then ATP for further 30 min) is given as “completely prevented the release of shed vesicles above background levels”. For the same molecule, the “release of AnnexinV+ shed vesicles” value (Primary mouse microglia; FTY720 pre-treatment 18 h, then ATP 30 min) was “completely prevented the release of shed vesicles above background levels”.
In the case of `OC[C@H]1O[C@H](OC[C@H]2OC(O)[C@H](O)[C@@H](O)[C@@H]2O)[C@H](O)[C@@H](O)[C@H]1O` (stereo partly drawn) [melibiose, 6-O-a-D-galactopyranosyl-D-glucose], the “IB4-FITC binding to the cell surface” value (isolectin IB-4 [4]) is reported as “completely prevents its binding to the cell surface” and the “IB4-FITC labeling of intact MVs” value (isolectin IB-4 [5]) is reported as “completely abolished IB4-FITC labeling”.
